From ChEMBL document CHEMBL1152258, “Imidazo[5,1-f][1,2,4]triazin-2-amines as novel inhibitors of polo-like kinase 1” (Bioorg Med Chem Lett, 2008)
Blank lines part the entries; values can stand above or below the compound they belong to.

How the values were obtained:
[1] = target: Serine/threonine-protein kinase PLK1 (Homo sapiens, UniProt P53350); test: Inhibition of PLK1 expressed in baculovirus infected Trichoplusia ni cells
NCI-H460 = test: Antiproliferative activity against human H460 cells after 72 hrs; assay type: functional, cell-based; settings: NCI-H460, 72 h
RKO = test: Antiproliferative activity against human RKO cells after 72 hrs; assay type: functional, cell-based
[2] = AUC in po dosed mouse; assay type: ADME, organism-based; settings: plasma
MCF7 = test: Antiproliferative activity against human MCF7 cells after 72 hrs; assay type: functional, cell-based; settings: MCF7, 72 h
HCT-116 = test: Antiproliferative activity against human HCT116 cells after 72 hrs; assay type: functional, cell-based; settings: HCT-116, 72 h
PC-3 = test: Antiproliferative activity against human PC3 cells after 72 hrs; assay type: functional, cell-based; settings: PC-3, 72 h
[3] = Oral bioavailability in mouse; assay type: ADME, organism-based; settings: in vivo
[4] = Clearance in mouse at 2.9 mg/kg, iv; assay type: ADME, organism-based; parameters: dose 2.9 mg/kg, route intravenous; settings: in vivo
[5] = Volume of distribution at steady state in mouse at 2.9 mg/kg, iv; assay type: ADME, organism-based; parameters: dose 2.9 mg/kg, route intravenous; settings: in vivo, read-out: Vdss
[6] = target: Serine/threonine-protein kinase PLK3 (Homo sapiens, UniProt Q9H4B4); test: Inhibition of PLK3 expressed in baculovirus infected Trichoplusia ni cells
Serine/threonine-protein kinase PLK3, sequence (Q9H4B4 whole entry): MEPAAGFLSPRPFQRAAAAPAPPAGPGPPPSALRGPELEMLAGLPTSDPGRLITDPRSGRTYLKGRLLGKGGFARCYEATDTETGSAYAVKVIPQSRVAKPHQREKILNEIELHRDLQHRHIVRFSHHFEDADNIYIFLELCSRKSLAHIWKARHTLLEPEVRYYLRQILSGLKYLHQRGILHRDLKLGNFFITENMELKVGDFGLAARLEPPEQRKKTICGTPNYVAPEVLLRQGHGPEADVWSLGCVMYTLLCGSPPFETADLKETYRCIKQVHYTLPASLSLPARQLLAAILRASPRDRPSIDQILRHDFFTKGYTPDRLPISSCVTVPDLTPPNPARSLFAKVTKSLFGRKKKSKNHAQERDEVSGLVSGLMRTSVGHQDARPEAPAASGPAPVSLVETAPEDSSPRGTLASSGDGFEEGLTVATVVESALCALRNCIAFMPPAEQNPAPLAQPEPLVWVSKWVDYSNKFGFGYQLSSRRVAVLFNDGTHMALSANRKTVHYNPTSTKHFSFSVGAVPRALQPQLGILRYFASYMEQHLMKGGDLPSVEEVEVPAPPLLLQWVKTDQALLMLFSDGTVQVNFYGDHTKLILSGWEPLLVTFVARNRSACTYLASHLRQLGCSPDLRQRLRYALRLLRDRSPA

[7] = Volume of distribution at steady state in mouse at 5 mg/kg, iv; assay type: ADME, organism-based; parameters: dose 5 mg/kg, route intravenous; settings: in vivo, read-out: Vdss
[8] = Clearance in mouse at 5 mg/kg, iv; assay type: ADME, organism-based; parameters: dose 5 mg/kg, route intravenous; settings: in vivo

Serine/threonine-protein kinase PLK1, sequence (P53350 whole entry): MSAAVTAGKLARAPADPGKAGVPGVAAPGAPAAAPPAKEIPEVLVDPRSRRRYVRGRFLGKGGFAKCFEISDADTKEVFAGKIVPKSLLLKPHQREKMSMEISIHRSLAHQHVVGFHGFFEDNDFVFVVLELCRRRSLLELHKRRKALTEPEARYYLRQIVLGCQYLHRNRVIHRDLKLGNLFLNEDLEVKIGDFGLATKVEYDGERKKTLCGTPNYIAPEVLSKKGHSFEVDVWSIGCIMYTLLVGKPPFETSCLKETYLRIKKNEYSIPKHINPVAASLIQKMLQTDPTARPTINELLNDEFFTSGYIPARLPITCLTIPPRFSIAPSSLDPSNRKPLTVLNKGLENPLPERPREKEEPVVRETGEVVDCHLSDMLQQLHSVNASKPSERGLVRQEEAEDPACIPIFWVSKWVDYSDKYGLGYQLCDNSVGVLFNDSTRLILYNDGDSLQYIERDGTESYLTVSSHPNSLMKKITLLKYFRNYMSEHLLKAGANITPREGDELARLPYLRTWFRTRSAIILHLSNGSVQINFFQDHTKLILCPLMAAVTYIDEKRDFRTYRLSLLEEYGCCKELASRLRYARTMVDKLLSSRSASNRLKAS

Structure (SMILES): COc1cccc(Nc2ncc3c(C)nc(-c4ccccc4)n3n2)c1
IC50 [1]: 0.3 µM

Structure (SMILES): Cc1nc(-c2ccccc2)n2nc(NCCc3ccncc3)ncc12
IC50 [1]: > 10 µM

Structure (SMILES): COc1ccc(Nc2ncc3c(C)nc(-c4ccccc4)n3n2)cc1OC
IC50 [1]: 0.09 µM

Structure (SMILES): Cc1nc(-c2ccccc2)n2nc(Nc3ccc(S(N)(=O)=O)cc3)ncc12
IC50 [1]: 2.74 µM

Structure (SMILES): COc1cc(Nc2ncc3c(C)nc(-c4ccccc4)n3n2)cc(OC)c1OC
IC50 [6]: 0.09 µM
IC50 (NCI-H460): 6.5 µM
IC50 (RKO): 3.7 µM
AUC [2]: 301 ng·h/mL
IC50 (MCF7): 5.2 µM
IC50 (HCT-116): 5.3 µM
Vd [7]: 1.6 L/kg
IC50 (PC-3): 12 µM
bioavailability [3]: 10%
clearance [8]: 53 mL/min/kg

Structure (SMILES): Cc1nc(-c2ccccc2)n2nc(Nc3ccc(OCCN(C)C)cc3)ncc12
IC50 [1]: 0.38 µM

Structure (SMILES): COc1ccccc1-c1nc(C)c2cnc(Nc3cc(OC)c(OC)c(OC)c3)nn12
IC50 [1]: 5.66 µM

Structure (SMILES): COc1ccc(Nc2ncc3c(C)nc(-c4ccccc4)n3n2)cc1
IC50 [1]: 0.68 µM

Structure (SMILES): Cc1nc(-c2ccccc2)n2nc(N)ncc12
IC50 [1]: > 10 µM

Structure (SMILES): COc1cc(Nc2ncc3c(C)nc(-c4cccc(Br)c4)n3n2)cc(OC)c1OC
IC50 (NCI-H460): 5.8 µM
IC50 (RKO): 7.6 µM
IC50 (MCF7): 11 µM
IC50 (HCT-116): 7.8 µM
IC50 (PC-3): 26 µM
IC50 [1]: 0.07 µM

Structure (SMILES): Cc1nc(-c2ccccc2)n2nc(Nc3cccc(C(F)(F)F)c3)ncc12
IC50 [1]: > 10 µM

Structure (SMILES): Cc1nc(-c2ccccc2)n2nc(NC3CCCCC3)ncc12
IC50 [1]: > 10 µM

Second part, led by results:

IC50 [1]: > 10 µM
Structure (SMILES): Cc1nc(-c2ccccc2)n2nc(NCCCN3CCOCC3)ncc12 [GW874091X]

IC50 (NCI-H460): 5.4 µM
AUC [2]: 264 ng·h/mL
IC50 (MCF7): 4.8 µM
IC50 (HCT-116): 3.9 µM
IC50 (PC-3): 7.8 µM
bioavailability [3]: 18%
clearance [4]: 81 mL/min/kg
Vd [5]: 2.3 L/kg
Structure (SMILES): COc1cc(Nc2ncc3c(C)nc(-c4cccc(C(F)(F)F)c4)n3n2)cc(OC)c1OC [GW837331X]
IC50 (RKO): 3.2 µM

IC50 [1]: 1.06 µM
Structure (SMILES): COc1cc(Nc2ncc3c(C)nc(-c4ccc(C(F)(F)F)cc4)n3n2)cc(OC)c1OC

IC50 [1]: 1.98 µM
Structure (SMILES): COc1cc(Nc2ncc3c(C)nc(-c4ccccc4[N+](=O)[O-])n3n2)cc(OC)c1OC

IC50 [1]: 0.08 µM
Structure (SMILES): COc1cc(Nc2ncc3c(C)nc(-c4ccc(F)cc4)n3n2)cc(OC)c1OC

IC50 [1]: 2.67 µM
Structure (SMILES): COc1cc(Nc2ncc3c(C)nc(-c4ccccc4Br)n3n2)cc(OC)c1OC

IC50 [1]: 1.2 µM
Structure (SMILES): Cc1nc(-c2ccccc2)n2nc(Nc3ccccc3)ncc12

IC50 [1]: 2.81 µM
Structure (SMILES): Cc1nc(-c2ccccc2)n2nc(Nc3ccc([N+](=O)[O-])cc3)ncc12

IC50 [1]: 1.5 µM
Structure (SMILES): Cc1nc(-c2ccccc2)n2nc(NCc3ccccc3)ncc12
